What was measured:
[1] = molecular target: recombinant human CK2 (Homo sapiens (Human), UniProt P68400); assay: CK2 assay (cell-free, 33P-ATP filter plate); type: biochemical; settings: 500 nM compound, cell-free assay; read-out: CK2: % inh 500 nM
[2] = test system: HCT-116 human colorectal carcinoma cells; assay: Cell-proliferation assay using Alamar Blue dye; type: cell-based; settings: Homo sapiens, HCT-116, second HCT-116 column (c8); read-out: HCT-116 (uM) cell proliferation modulatory activity;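 also: cells exposed to compound for about 4 days, then Alamar Blue added and dye fluorescence read after about 4 h, compared with medium-only control wells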
[3] = molecular target: recombinant human PIM1 (Homo sapiens (Human), UniProt P11309); assay: PIM-1 kinase activity in cell-free in vitro assay; type: biochemical; settings: cell-free assay; for inhibition at 0.5 µM: 500 nM compound, read-out: PIM-1: % inh 500 nM
[4] = test system: K-562; assay: Cell proliferation modulatory activity, K-562; type: cell-based; settings: Homo sapiens, K562; K-562 cells
[5] = test system: MV-4-11; assay: Cell proliferation modulatory activity, MV-4-11; type: cell-based; settings: Homo sapiens, MV4-11; MV-4-11 cells

recombinant human PIM1, sequence (P11309 whole entry): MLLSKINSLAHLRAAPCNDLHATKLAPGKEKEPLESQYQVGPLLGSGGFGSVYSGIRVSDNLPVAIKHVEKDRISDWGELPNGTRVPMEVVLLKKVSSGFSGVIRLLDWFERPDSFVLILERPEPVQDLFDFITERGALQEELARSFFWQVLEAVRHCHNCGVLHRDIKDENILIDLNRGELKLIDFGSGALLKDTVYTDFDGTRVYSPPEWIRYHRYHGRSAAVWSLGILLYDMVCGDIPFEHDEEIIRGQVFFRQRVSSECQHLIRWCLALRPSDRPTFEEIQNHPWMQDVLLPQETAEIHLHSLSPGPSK
recombinant human CK2, sequence (P68400 whole entry): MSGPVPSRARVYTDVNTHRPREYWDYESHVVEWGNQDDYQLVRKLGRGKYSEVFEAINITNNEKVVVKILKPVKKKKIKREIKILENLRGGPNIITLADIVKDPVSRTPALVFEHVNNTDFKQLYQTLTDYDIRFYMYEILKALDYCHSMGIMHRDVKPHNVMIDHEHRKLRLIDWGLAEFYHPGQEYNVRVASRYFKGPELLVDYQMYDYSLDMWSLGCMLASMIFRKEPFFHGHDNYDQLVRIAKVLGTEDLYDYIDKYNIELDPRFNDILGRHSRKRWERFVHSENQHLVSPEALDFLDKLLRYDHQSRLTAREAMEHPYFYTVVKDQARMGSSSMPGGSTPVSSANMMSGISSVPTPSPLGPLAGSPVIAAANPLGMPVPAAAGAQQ
recombinant human CK2, sequence (P67870 whole entry partner): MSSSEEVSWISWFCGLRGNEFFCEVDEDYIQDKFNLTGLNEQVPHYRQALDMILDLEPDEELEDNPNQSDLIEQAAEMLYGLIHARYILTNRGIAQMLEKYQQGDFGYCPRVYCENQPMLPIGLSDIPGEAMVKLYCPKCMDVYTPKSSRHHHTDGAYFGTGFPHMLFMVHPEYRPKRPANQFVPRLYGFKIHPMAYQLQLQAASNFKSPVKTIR

| Compound | inhibition at 0.5 µM [1] [%] | IC50 [2] [µM] | inhibition at 0.5 µM [3] [%] | IC50 [4] [µM] | IC50 [5] [µM] | IC50 [3] [µM] |
| --- | --- | --- | --- | --- | --- | --- |
| c1ccc(CNc2nc3cc(-c4nnn[nH]4)ccc3c3sccc23)nc1 | 27.9 | > 10 | 16.8 | > 10 | 1 | – |
| COC(=O)c1ccc2c(c1)nc(NCCN(C)C)c1ccsc12 | -0.704 | 1.52 | -6.89 | 1.09 | 0.73 | – |
| CN(C)CCNc1nc2cc(C#N)ccc2c2sc(Br)cc12 | -7.27 | 0.704 | 12.1 | 0.719 | 0.588 | – |
| CN(C)CCNc1nc2cc(-c3nnn[nH]3)ccc2c2sc(Br)cc12 | 24.8 | > 10 | 60.7 | > 10 | > 10 | 0.656 |
| CN1CCN(c2nc3cc(-c4nnn[nH]4)ccc3c3sccc23)CC1 | 7.3 | > 10 | 81.3 | > 10 | > 10 | 0.178 |
| CN(C)CCNc1nc2cc(-c3nnc[nH]3)ccc2c2sccc12 | -76.9 | > 10 | -2.14 | > 10 | 6.04 | – |
| c1cc2c(NC3CCNCC3)nc3cc(-c4nnn[nH]4)ccc3c2s1 | -21.2 | > 10 | 85.7 | > 10 | > 10 | 0.078 |
| CCCNc1nc2cc(-c3nnn[nH]3)ccc2c2sccc12 | 31.1 | > 10 | 59.1 | > 10 | > 10 | > 1.1 |
| CC(C)(C)OC(=O)N1CCCC1CNc1nc2cc(-c3nnn[nH]3)ccc2c2sccc12 (stereo not drawn) | 27 | > 10 | 35 | > 10 | > 10 | – |
| c1cc2c(NCCN3CCCCC3)nc3cc(-c4nnn[nH]4)ccc3c2s1 | 37.1 | > 10 | 81.1 | > 10 | > 10 | 0.313 |
| c1cc2c(NCC3CCCN3)nc3cc(-c4nnn[nH]4)ccc3c2s1 (stereo not drawn) | 86.1 | > 10 | 93.4 | > 10 | > 10 | 0.046 |
| CCN(CC)CCNc1nc2cc(-c3nnn[nH]3)ccc2c2sccc12 | 52.6 | > 10 | 87.3 | > 10 | > 10 | 0.127 |
| CN(C)CCNc1nc2cc(C(=O)NC3CCCCC3)ccc2c2sccc12 | -10.6 | > 10 | -3.1 | > 10 | > 10 | – |
| COCCNC(=O)c1ccc2c(c1)nc(NCCN(C)C)c1ccsc12 | -12.9 | > 10 | -3.76 | > 10 | > 10 | – |
| CN1CCCCC1CNc1nc2cc(-c3nnn[nH]3)ccc2c2sccc12 (stereo not drawn) | 32.8 | > 10 | 90.9 | > 10 | > 10 | 0.064 |
| N#Cc1ccc2c(c1)[nH]c(=O)c1cscc12 | -0.336 | > 10 | -26.7 | > 10 | > 10 | – |
| N#Cc1ccc2c(c1)nc(Cl)c1cscc12 | -6.52 | > 10 | -20.3 | > 10 | 1.81 | – |
| N#Cc1ccc2c(c1)nc(Nc1cccc(Cl)c1)c1cscc12 | -9.4 | > 10 | -32.8 | > 10 | > 10 | – |
| N#Cc1ccc2c(c1)nc(Nc1ccc(F)cc1)c1cscc12 | 9.21 | > 10 | -6.77 | > 10 | > 10 | – |
| N#Cc1ccc2c(c1)nc(Nc1cccc(F)c1)c1cscc12 | -20.1 | > 10 | -28.6 | 8.04 | > 10 | – |
| N#Cc1ccc2c(c1)nc(Nc1ccc(Cl)cc1)c1cscc12 | -2.49 | > 10 | -35.8 | > 10 | > 10 | – |
| N#Cc1ccc2c(c1)nc(Nc1ccc(F)c(Cl)c1)c1cscc12 | -8.36 | > 10 | -26.3 | > 10 | > 10 | – |
| N#Cc1ccc2c(c1)nc(Nc1cccc(C(F)(F)F)c1)c1cscc12 | -2.65 | > 10 | -33.2 | > 10 | > 10 | – |

Reference: patent US8168651B2, “Protein kinase modulators” (Cylene Pharmaceuticals, Inc., priority 2008, dated 2012)
